Results published in US7241731B2, “Oligopeptides for promoting hair growth” (Sumitomo Electric Industries, Ltd., priority 2000, dated 2007).
Bridge positions count the residues as written; N and C are the ends. Primed or numbered codes have the meaning given here. Ends that are not written are not given here. I, II: the chains in the order shown. * marks the point of attachment. Biotin = O=C1N[C@H]2[C@H](CS[C@H]2CCCCC(=O)*)N1; BMH′ = not defined here

What was measured:
[1] = system: antigen of about 220 kDa present in new follicle (antigen of mAb27); test: Skin tissues of maxilla of ICR mice incubated with test oligopeptide, Western blot with mAb 27; format: cell-based; settings: for hair growth promoting activity (mAb 27 band stronger than control): Example 10, FIG. 4 and 5, BMH-treated oligopeptides of Example 9, 20 μCM
Protocol: The skin tissues of maxilla of ICR mice (pregnancy 12 days) were collected by stereoscopic microscope, and left and right sides were respectively recovered from 5 mice. 5 pieces of each of the thus collected left (for control) and right (for test oligopeptides) skins from 5 mice were respectively placed on 1 nuclepore membrane (pore diameter 8 μm; diameter 13 mm), and were set in such a way that the outside upturns by observing the samples with stereoscopic microscope. 500 μl of Dulbecco's MEM/Ham F12 medium containing 1% BSA was added to 2 wells of 24 well dish. The test oligopeptide in a solvent (PBS) was added in a final concentration of 20 μCM to one well, and solvent (PBS) was added in the same amount to the other well as a control. The oligopeptides synthesized in Example 9 were used as the test oligopeptides.
(§1) Each membrane having skin tissues thereon was launched on the solution in the above wells, and was incubated at 37° C. for 6 days. 5 pieces of tissue were recovered from the membrane into 100 μl of SDS sample buffer (SDS 0.02 g/ml, glycerol 0.2 g/ml, pH6.8), and dissolved by ultrasonic treatment. The control membrane was also treated similarly. The solution obtained by such a treatment was subjected to electrophoresis (35 mA, 1.5 hour) in SDS-PAGE (acrylamide 4–20%), and transferred to PVDF membrane, and incubated in Tris buffer containing 5% skim milk (TBST) for 1 hour. The membrane was reacted with mAb 27 (10 μg/ml in TBST) obtained in Example 2 for 1 hour, and was washed well with TBS. Then, peroxidase labeled anti-rat IgG (Amersham) (1/1000 diluted in TBST) was reacted as the second antibody, and the membrane was washed well with TBS. The intensity of the reaction of mAb 27 was examined using ECL kit (Amersham).
The skin tissues of maxilla of ICR mice (pregnancy 12 days) were collected by stereoscopic microscope, and left and right sides were respectively recovered from 5 mice. 5 pieces of each of the thus collected left (for control) and right (for test oligopeptides) skins from 5 mice were respectively placed on 1 nuclepore membrane (pore diameter 8 μm; diameter 13 mm), and were set in such a way that the outside upturns by observing the samples with stereoscopic microscope. 500 μl of Dalbecco's MEM/Ham F12 medium containing 1% BSA was added to 2 wells of 24 well dish. The test oligopeptide in a solvent (PBS) was added in a final concentration of 20 μM to one well, and solvent (PBS) was added in the same amount to the other well as a control. The unmodified and modified oligopeptides synthesized in the above (1) were used as the test oligopeptides.
as §1, with “Example 6” for “Example 2”
The skin tissues of maxilla of ICR mice (pregnancy 12 days) were collected by stereoscopic microscope, and left and right sides were respectively recovered from 5 mice. […]

[2] = system: Human keratinocytes (NHEK cell), IL-8 secretion; test: IL-8 secretion by NHEK cells (ELISA); format: cell-based; settings: for secretion amount of IL-8: FIG. 8, 50 μg/ml, deletion variants of b7; for secretion amount of IL-8 / IL-8 inducing activity: 16–20 hours; for IL-8 inducing activity: Table IV, 50 μg/ml, symbols not defined
Protocol: Human keratinocytes (NHEK cell, Clonetics, available from Sanko Jyun-yaku, Ltd.) were cultivated in a medium for proliferation (Clontics) comprising 30 μg/ml BPE, 0.1 ng/ml human EGF, 5 μg/ml insulin, 0.5 μg/ml hydrocortisone, 50 μg/ml gentamycin, and 50 ng/ml amphoterin. These cells were re-suspended at the concentration of 1×10^4 cells/ml in a medium wherein EGF, insulin, and hydrocortisone were removed from the above medium for proliferation, and then 100 μl of the suspension was placed on each well of a 96-well plate. At the same time of the plating of the cells, 5 μl of 1 mg/ml oligopeptide was added to the suspension so as to be final concentration of 50 μg/ml. After cultivation for 16–20 hours, the amount of IL-8 in the culture supernatants was measured by ELISA kit (ENDOGEN).

[3] = system: transition from telogen to anagen (hair cycle); test: Evaluation of hair growth promoting activity by in vivo method (shaved telogen mice, hair growth score); design: species or system C57BL/6 mice; settings: for hair restoration compared with the control group (hair growth score): topical application until 38th day, FIGS. 6 and 7; for Hair growth Activity: Table IV, symbols not defined
Protocol: C3H and C57BL/6 mice are known to have sustained telogen for about 50 days from the 45th day after the birth to around the 95th day. Their hair cycle is easily judged based on the skin color changes, i.e., from pink in telogen to gray or black in anagen. A test for evaluating whether or not the administration the oligopeptides of the present invention promotes the transition from telogen to anagen was carried out using the mice. Seven weeks old (48 to 50-day old, female) C57BL/6 mice were purchased and hair of the back (about 3×2.5 cm^2) was carefully shaved with electric clippers for animals so as not to injure the skin, and the hair cycle was confirmed to be in telogen from the skin color. The oligopeptide solution prepared above was applied to five mice in each group, once a day and 5 days in a week in the amount of 0.2 ml until 38th day from the start of the test. The application was carried out by using a syringe without needle. Dipeptide (Ile-Lys) and tripeptide (Glu-Ile-Lys) of which N-terminal is biotinylated were mixed, and then added with the cross-linking agent to prepare a control solution.
Plural persons (two persons) observed the mice twice a week by naked eye for evaluation, and gave a 6-graded score depending on a ratio of hair restoration area based on the hair shaved area. At the same time, photographs were taken. Hair growth scores were calculated as follows. At first, the following score was given depending on a ratio of areas where the skin color changes to gray or black in the hair shaved area; 0–20%: 1, 20–40%: 2, 40–60%: 3, 60–80%:4, 80–100%: 5. The sum of the above scores in each group was determined as the hair growth score. The maximum value of the hair growth score of each group was 50 for each of the persons for judgment, and the maximum value of hair growth score was 100 because the judgment was made by two persons.

[4] = cited from earlier work
[5] = Example 11, position of Cys altered, synthesized as in Example 9

In the case of SICEQSDQDE [oligopeptide (C)], the “hair growth promoting activity (mAb 27 band stronger than control)” value ([1]; 6 days) is reported as “have a hair growth promoting activity”.

In the case of SIEQCSDQDE [oligopeptide (A)], the “hair growth promoting activity (mAb 27 band stronger than control)” value ([1]; 6 days) is reported as “have a hair growth promoting activity”.

With “SIEQSCDQD (Biotin-SIEQSCDQD; also: sulfhydryl blocked) [b7ΔC1]” the “secretion amount of IL-8” value [2] was “maintained”.

In the case of “Lys-Ser-Ile-Glu-Gln-Ser-Cys-Asp-Gln-Asp-Glu (Biotin-KSIEQSCDQDE) [bk7]”, the “IL-8 inducing activity compared with oligopeptide b7” value ([2]; FIG. 9, Examples 17 and 18) is reported as “almost the same IL-8 inducing activity as that of oligopeptide b7”.

In the case of SIECQSD [SEQ ID NO:5], the “hair growth promoting activity” value [1, 5] is reported as “showed a hair growth promoting activity”.

With IEQSCDQDE (Biotin-IEQSCDQDE) [b7ΔN1] the “secretion amount of IL-8” value [2] was “slightly decreased”.

In the case of “ss7: S-S bridged oligopeptide prepared by reacting the oligopeptide (SEQ ID NO:84 series) with BMH; elsewhere called S-S bridged and biotinylated (SIEQSCDQDE; also: BMH cross-linked dimer, Cys attachment not placed, biotinylated, site not given here)”, the IL-8 inducing activity [2] is reported as “⊚”, the “hair growth promoting activity” value ([1]; Example 16) is reported as “has hair growth promoting activity” and the “band of mAb27 antigen versus control” value ([1]; Example 16, FIG. 13, 20 μM, 6 days) is reported as “a stronger band was detected”. For the same molecule, the “transition to anagen earlier than the control group” value ([3]; C57BL/6 mice, 0.2 ml of oligopeptide solution (0.15 mg/ml, 50% ethanol/PBS) once a day, 5 days in a week) was at least 7 days, the “hair restoration compared with the control group (hair growth score)” value ([3]; C57BL/6 mice) was “hair restoration was promoted at any time until the hair grew and restored almost completely” and the “Hair growth Activity” value [3] was “⊚”.

For SIEQSCDQDE [SEQ ID NO:84], the “hair growth promoting activity” value ([3]; conclusion of Example 15) was “has hair growth promoting activity”.

With EQSCDQDE (Biotin-EQSCDQDE) [b7ΔN2] the “secretion amount of IL-8” value [2] was “slightly decreased”.

For “b7: modified oligopeptide having biotin at the N-terminus of Ser-Ile-Glu-Gln-Ser-Cys-Asp-Gln-Asp-Glu (SEQ ID NO:84) (Biotin-SIEQSCDQDE)”, the IL-8 inducing activity [2] was “⊚”, the “hair restoration compared with the control group (hair growth score)” value ([3]; C57BL/6 mice) was “hair restoration was promoted until about 30 days from the start of the test” and the “Hair growth Activity” value [3] was “◯”.

In the case of SIECQSDQ [oligopeptide (D)], the “hair growth promoting activity (mAb 27 band stronger than control)” value ([1]; 6 days) is reported as “had a hair growth promoting activity”.

For SIEQCSD [SEQ ID NO:4], the “hair growth promoting activity” value [1, 5] was “showed a hair growth promoting activity”.

With “SIEQSCD (Biotin-SIEQSCD; also: Cys sulfhydryl blocked (group not given here)) [b7ΔC3]” the “secretion amount of IL-8” value [2] was “maintained”.

In the case of “SIEQSCDQ (Biotin-SIEQSCDQ; also: Cys sulfhydryl blocked (group not given here)) [b7ΔC2]”, the “secretion amount of IL-8” value [2] is reported as “maintained”.

With SIECQSDQDE [oligopeptide (B)] the “hair growth promoting activity (mAb 27 band stronger than control)” value ([1]; 6 days) was “have a hair growth promoting activity”.

In the case of SIEQS (Biotin-SIEQS) [b7ΔC5], the “secretion amount of IL-8” value [2] is reported as “significantly decreased”.

In the case of QSCDQDE (Biotin-QSCDQDE) [b7ΔN3], the “secretion amount of IL-8” value [2] is reported as “slightly decreased”.

For “SIEQSC (Biotin-SIEQSC; also: Cys sulfhydryl blocked (group not given here)) [b7ΔC4]”, the “secretion amount of IL-8” value [2] was “maintained”.

For SICEQSD [SEQ ID NO:6], the “hair growth promoting activity” value [1, 5] was “showed a hair growth promoting activity”.

For “heterodimer oligopeptide: heterodimer made with BMH from two different oligopeptides; b464 names SEQ ID NO:87 and SEQ ID NO:4, b490 oligopeptides (A) and (B) (chain 1 SIEQSCD; chain 2 SIEQCSD; linker I:6-II:5 via BMH′ (inferred))”, the “hair growth promoting activity (mAb 27 band stronger than control)” value ([1]; 6 days) was “had also a hair growth promoting activity”.

B1: Native mammalian epimorphin: protein of 277 to 289 amino acids promoting the morphogenesis of epithelial tissue (protein, UniProt P32856 1-288, looked up)
Syntaxin-2: MRDRLPDLTACRKNDDGDTVVVVEKDHFMDDFFHQVEEIRNSIDKITQYVEEVKKNHSIILSAPNPEGKIKEELEDLNKEIKKTANKIRAKLKAIEQSFDQDESGNRTSVDLRIRRTQHSVLSRKFVEAMAEYNEAQTLFRERSKGRIQRQLEITGRTTTDDELEEMLESGKPSIFTSDIISDSQITRQALNEIESRHKDIMKLETSIRELHEMFMDMAMFVETQGEMINNIERNVMNATDYVEHAKEETKKAIKYQSKARRKKWIIIAVSVVLVAIIALIIGLSVGK
In the case of B1, the “solubility in aqueous media such as saline” value [4] is listed as “almost insoluble”.
